{
  "source": "patent US20260027073A1",
  "about": "“USE OF SMALL-MOLECULE COMPOUND HAVING NAPHTHYLAMINE STRUCTURE” (HANGZHOU PHECDAMED CO., LTD., priority 2023, published 2026)",
  "key": {"[1]": {"system": "mouse bone marrow mesenchymal stem cells", "test": "Senescence of mouse bone marrow mesenchymal stem cells by passaging", "type": "cell-based", "details": "10 μM", "method": "Extraction of bone marrow mesenchymal stem cells: C57 mice weighing about 25 g were selected, and after anesthesia with 30 mg/kg chloral hydrate, the femur and tibia were removed and put into a Petri dish, one end of the femur and tibia were cut off to fully expose the bone marrow cavity, and a 1 ml syringe was used to extract the DMEM/F12 medium, and the tip of the needle was pricked into the bone marrow cavity to rinse the bone marrow, and a 15 ml centrifuge tube was connected underneath to make the rinsed liquid flow into the centrifuge tube, and the rinsing was repeated several times until the bone marrow cavity was rinsed clean. The rinsed suspension was blown repeatedly with a pipette to make the cells in the rinsed liquid as single-cell as possible, and the supernatant was transferred to another tube after standing still for a few minutes, and the cell suspension was continued to blow to make the cells well dispersed. The obtained cell suspension was centrifuged at 1000 rpm for 5 min, and after removing the residual supernatant, 1 ml of DMEM/F12 medium was added, and after repeated blowing, the CD45-Sca-1+PDGFRα+high-purity primary mouse bMSC cell line was sorted out by flow cytometric sorting, and the sorted cells were dispensed into culture flasks. The cells were observed under the microscope and placed in the incubator at 37° C., 5% CO2 to incubate, and the solution was replaced for 72 h, the drug administration treatment was performed at the first passaging, and then 10 μM TJ01-013 was given to each passaging thereafter, labeled as Con-Y at the 2nd generation, and labeled as Con-O at the 9th generation, and the drug administration treatment groups were given until the 9th generation, and all the cells were placed under the microscope for observing the morphology of the cells, and the proportion of the SA-β-gal+ cells was counted. The levels of the DNA damage marker γ-H2AX and the heterochromatin modification H3K9me3 after TJ01-013 treatment were detected by immunofluorescence technique (procedure described previously)."}, "[2]": {"system": "chronic obstructive pulmonary disease model rats", "test": "Chronic obstructive pulmonary disease (LPS plus passive smoking)", "type": "in vivo, SD rats", "details": "gavage 3 weeks, FIG. 62", "method": "After 5-week-old male SD rats were adaptively fed for 1 week, they were randomly grouped according to their body weights into five groups, i.e., a normal control group (normal, n=10), a model control group (Control, n=10), a TJ01-013 7.5 mg/kg treatment group (7.5 mg/kg, n=10), a TJ01-013 15 mg/kg treatment group (15 mg/kg, n=10), TJ01-013 30 mg/kg treatment group (30 mg/kg, n=10). The model was replicated using the intra-airway injection of lipopolysaccharide method combined with passive smoking method, which is a recognized model for chronic obstructive pulmonary disease. […] From the second day of modeling, the normal control group and the model control group were treated with vehicle (0.5% CMC-Na) by gavage, and the TJ01-013 treatment group was treated with the corresponding concentration of TJ01-013 in a volume of 10 ml/kg for a total of 3 weeks, and blood was collected from the posterior bulbous vein of the rat after administration, and the blood was centrifuged at 6,000 rpm for 10 min after standing still at room temperature for 30 min, then the upper layer of serum was taken, and the levels of TNFα and CXCL1 in serum were detected by enzyme-linked immunosorbent assay (ELISA)."}},
  "data": [
    {"molecule": "O=C(O)C[S+]([O-])c1cc(NS(=O)(=O)c2ccc(Br)cc2)c2ccccc2c1O", "note": "(centres unmarked) [I-1]", "values": [
      {"measurement": "percentage of SA-β-gal+ cells", "setting": "[1]; 9th generation, vs Con-O, FIG. 48", "value": "significantly decreased"},
      {"measurement": "expression level of heterochromatin-modified H3K9me3", "setting": "[1]; Con-O cells, FIG. 50", "value": "restored its expression level to some extent"},
      {"measurement": "level of DNA damage marker γ-H2AX", "setting": "[1]; aged cells, FIG. 49", "value": "significantly reduced"},
      {"measurement": "serum CXCL1 level", "setting": "[2]; 15 mg/kg and 30 mg/kg", "value": "reduce"},
      {"measurement": "serum TNFα level", "setting": "[2]; 30 mg/kg", "value": "reduced the serum TNFα level, and the difference was significant"}
    ]}
  ]
}
